In US20160074480A1, “INNOVATIVE METHODS OF TREATMENTING TUBERCULOSIS” (priority 2015, published 2016):

Tests used:
M. tuberculosis = settings: added to or substituted in isoniazid, rifampicin and pyrazinamide triple therapy; cited from earlier work
pulmonary tuberculosis = settings: given alone; cited from earlier work
[1] = in vivo; cited from earlier work
[2] = 2 mg/kg; amikacin 450 mg/kg; cited from earlier work
tuberculosis bacteria = settings: treated for 3 days, versus untreated sample; cited from earlier work
latent tuberculosis = settings: taken daily for 9 months; cited from earlier work
[3] = test system: Mycobacterium tuberculosis growth; settings: cited from earlier work
[4] = test system: MCF-7 Human Breast Cancer Cells; settings: insulin with methotrexate; cited from earlier work
[5] = Finger stick blood sugar after insulin; type: in vivo, human; settings: 10 minutes after 5-10 units subcutaneously or IV
Method: Blood sugar was tested by using finger stick. We administered 5-10 units of homolog (rapid acting) insulin subcutaneously or IV slowly depending on the blood sugar levels. The glucose was checked 10 minutes later. It has dropped to ±40 mg %.

Compound: COc1nc2ccc(Br)cc2cc1[C@@H](c1ccccc1)[C@@](O)(CCN(C)C)c1cccc2ccccc12 [R-207910, Bedaquiline]
- effectiveness of treatment (M. tuberculosis): increased the effectiveness

Compound: [H]/N=C(/N)N[C@H]1[C@H](O)[C@@H](O)[C@H](O[C@@H]2O[C@@H](C)[C@](O)(C=O)[C@H]2O[C@@H]2O[C@@H](CO)[C@H](O)[C@@H](O)[C@@H]2NC)[C@@H](N/C(N)=N\[H])[C@@H]1O [Streptomycin]
- immediate mortality (pulmonary tuberculosis): dramatic reduction in immediate mortality
- ADVERSE EVENT/CONTRAINDICATION [1]: Deafness, Contraindicated during pregnancy

Compound: CCOC(=O)C1=C[C@]2(CC)CCCN3CCc4c(n1c1ccccc41)[C@@H]32 [Vinpocetine]
- hearing loss [2]: prevented hearing loss

Compound: NNC(=O)c1ccncc1 [isoniazid, Isoniazid]
- intracellular levels of ferrous ions (tuberculosis bacteria): up to ten times higher
- reduction of the risk of active TB (latent tuberculosis): ≤ 90%
- ADVERSE EVENT/CONTRAINDICATION [1]: Peripheral neuropathy

Compound: Capreomycin
- adverse effects stated in the text [1]: nephrotoxicity and 8th cranial auditory vestibular nerve toxicity
- concentration inhibiting growth [3]: 2.5 µg/mL

Compound: insulin: hormone produced in beta cells of pancreas, large polypeptide of A and B chains
- enhancement of the activity of methotrexate [4]: 10,000 times
- blood glucose by finger stick [5]: ~40 mg %
